Reference: PubChem BioAssay (NCI)
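These data come from cells grown in 96-well plates and exposed to compound for 48 hours at five concentrations. The concentration for 50% growth inhibition is given as GI50. TGI denotes the concentration required for complete inhibition of growth.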

Key:
Assay in all cases: growth of human tumour cells (NCI), 48 h
HCC-2998 colon = system: HCC-2998 colon
A549 NSCLC = system: A549 NSCLC
BT-549 breast = system: BT-549 breast
MDA-MB-231 breast = system: MDA-MB-231 breast
CCRF-CEM leukemia = system: CCRF-CEM leukemia
MCF7 breast = system: MCF7 breast
CAKI-1 renal = system: CAKI-1 renal
UO-31 renal = system: UO-31 renal
NCI/ADR-RES ovarian = system: NCI/ADR-RES ovarian
KM12 colon = system: KM12 colon

For `O=C(O)CCCCC(CCSCc1ccccc1)SCc1ccccc1` (stereo not given), the GI50 (HCC-2998 colon) was 34.8 µM, the TGI (HCC-2998 colon) was > 100 µM and the GI50 (A549 NSCLC) was 43.5 µM. For the same molecule, the TGI (A549 NSCLC) was > 100 µM, the GI50 (BT-549 breast) was 50.8 µM and the TGI (BT-549 breast) was > 100 µM. The GI50 (MDA-MB-231 breast) was > 66.9 µM, the TGI (MDA-MB-231 breast) was > 100 µM and the GI50 (CCRF-CEM leukemia) was 37 µM. For the same molecule, the TGI (CCRF-CEM leukemia) was > 100 µM, the GI50 (MCF7 breast) was 58.8 µM and the TGI (MCF7 breast) was > 100 µM. The GI50 (CAKI-1 renal) was > 77.5 µM, the TGI (CAKI-1 renal) was > 100 µM and the GI50 (UO-31 renal) was 30.9 µM. The TGI (UO-31 renal) was > 100 µM, the GI50 (NCI/ADR-RES ovarian) was 48.6 µM and the TGI (NCI/ADR-RES ovarian) was > 100 µM. For the same molecule, the GI50 (KM12 colon) was 35.2 µM and the TGI (KM12 colon) was > 100 µM.

In the case of `CCOc1cccc(/C=N/NC(=O)c2ccccc2Nc2ccnc(C(F)(F)F)c2)c1O`, the GI50 (HCC-2998 colon) is reported as 0.398 µM, the TGI (HCC-2998 colon) is reported as > 44.2 µM and the GI50 (A549 NSCLC) is reported as 1.64 µM. For the same molecule, the TGI (A549 NSCLC) was > 100 µM, the GI50 (BT-549 breast) was 0.494 µM and the TGI (BT-549 breast) was 53.6 µM. The GI50 (MDA-MB-231 breast) was 0.7 µM, the TGI (MDA-MB-231 breast) was > 100 µM and the GI50 (CCRF-CEM leukemia) was 0.136 µM. For the same molecule, the TGI (CCRF-CEM leukemia) was > 31.4 µM, the GI50 (MCF7 breast) was 0.34 µM and the TGI (MCF7 breast) was 25.4 µM. It also gave a GI50 (CAKI-1 renal) of 0.222 µM, a TGI (CAKI-1 renal) of 10.5 µM and a GI50 (UO-31 renal) of 0.303 µM. It also gave a GI50 (NCI/ADR-RES ovarian) of 0.506 µM, a TGI (NCI/ADR-RES ovarian) of 26.3 µM and a GI50 (KM12 colon) of 0.513 µM. It also gave a TGI (KM12 colon) of 47.7 µM.

In the case of `O=C(O)Cn1ccc(=O)c2ccc([N+](=O)[O-])cc21`, the TGI (HCC-2998 colon) is reported as > 100 µM, the TGI (A549 NSCLC) is reported as > 100 µM and the TGI (BT-549 breast) is reported as > 100 µM. The TGI (MDA-MB-231 breast) was 78.5 µM, the TGI (CCRF-CEM leukemia) was > 100 µM and the TGI (MCF7 breast) was > 100 µM. For the same molecule, the TGI (CAKI-1 renal) was > 100 µM, the TGI (UO-31 renal) was > 100 µM and the TGI (NCI/ADR-RES ovarian) was > 100 µM. For the same molecule, the TGI (KM12 colon) was > 100 µM.

In the case of `N#C/C(=C1C=C/C(=N/O)C(Br)=C/1)c1ccccc1`, the GI50 (HCC-2998 colon) is reported as 5.02 µM, the TGI (HCC-2998 colon) is reported as 20.7 µM and the GI50 (A549 NSCLC) is reported as 3.48 µM. For the same molecule, the TGI (A549 NSCLC) was > 100 µM, the GI50 (BT-549 breast) was 9.59 µM and the TGI (BT-549 breast) was 27.3 µM. The GI50 (MDA-MB-231 breast) was 2.27 µM, the TGI (MDA-MB-231 breast) was 6.73 µM and the GI50 (CCRF-CEM leukemia) was 0.661 µM. For the same molecule, the TGI (CCRF-CEM leukemia) was 8.91 µM, the GI50 (MCF7 breast) was 0.323 µM and the TGI (MCF7 breast) was 11.3 µM. For the same molecule, the GI50 (CAKI-1 renal) was 0.7 µM, the TGI (CAKI-1 renal) was 12.7 µM and the GI50 (UO-31 renal) was 2.04 µM. It also gave a TGI (UO-31 renal) of 15.4 µM, a GI50 (NCI/ADR-RES ovarian) of 2.61 µM and a TGI (NCI/ADR-RES ovarian) of 84.1 µM. The GI50 (KM12 colon) was 0.347 µM and the TGI (KM12 colon) was 1.42 µM.

For `CCc1c(Oc2ccc(C(C)=O)cc2)c2ccccc2[nH]c1=O`, the GI50 (HCC-2998 colon) was 14.3 µM, the TGI (HCC-2998 colon) was 30 µM and the GI50 (A549 NSCLC) was 18.5 µM. It also gave a TGI (A549 NSCLC) of 59.5 µM, a GI50 (BT-549 breast) of 17.6 µM and a TGI (BT-549 breast) of 70.8 µM. For the same molecule, the GI50 (MDA-MB-231 breast) was 7.03 µM, the TGI (MDA-MB-231 breast) was 39.1 µM and the TGI (CCRF-CEM leukemia) was > 43.6 µM. For the same molecule, the GI50 (MCF7 breast) was 10.5 µM, the TGI (MCF7 breast) was > 71.7 µM and the GI50 (CAKI-1 renal) was 15.8 µM. The TGI (CAKI-1 renal) was 53.3 µM, the GI50 (UO-31 renal) was 19.5 µM and the TGI (UO-31 renal) was > 100 µM. The GI50 (NCI/ADR-RES ovarian) was 23 µM, the TGI (NCI/ADR-RES ovarian) was > 74 µM and the GI50 (KM12 colon) was 18.6 µM. For the same molecule, the TGI (KM12 colon) was > 60.9 µM.

For `N#Cc1ccc(C#Cc2ccccc2C#CCCCCO)cc1`, the GI50 (HCC-2998 colon) was 18.5 µM, the TGI (HCC-2998 colon) was 33.1 µM and the GI50 (A549 NSCLC) was 14.4 µM. For the same molecule, the TGI (A549 NSCLC) was 27.9 µM, the GI50 (BT-549 breast) was 14.7 µM and the TGI (BT-549 breast) was 29.3 µM. For the same molecule, the GI50 (MDA-MB-231 breast) was 16.7 µM, the TGI (MDA-MB-231 breast) was 31.3 µM and the GI50 (CCRF-CEM leukemia) was 14.8 µM. The TGI (CCRF-CEM leukemia) was 29.1 µM, the GI50 (MCF7 breast) was 22.1 µM and the TGI (MCF7 breast) was 45.6 µM. For the same molecule, the GI50 (CAKI-1 renal) was 21 µM, the TGI (CAKI-1 renal) was 39.8 µM and the GI50 (UO-31 renal) was 16.9 µM. For the same molecule, the TGI (UO-31 renal) was 35.3 µM, the GI50 (NCI/ADR-RES ovarian) was 17.7 µM and the TGI (NCI/ADR-RES ovarian) was 36.9 µM. The GI50 (KM12 colon) was 17.8 µM and the TGI (KM12 colon) was 36.2 µM.

Molecule `COc1ccc(C2=NN(C(=O)c3cc(OC)c(OC)c(OC)c3)C(c3ccc(C#N)cc3)C2)cc1OC` (stereo not given) has a GI50 (HCC-2998 colon) of 2.16 µM, a TGI (HCC-2998 colon) of 6.63 µM and a GI50 (A549 NSCLC) of 2.32 µM. For the same molecule, the TGI (A549 NSCLC) was > 100 µM, the GI50 (BT-549 breast) was 2.98 µM and the TGI (BT-549 breast) was > 33.1 µM. The GI50 (MDA-MB-231 breast) was 2.86 µM, the TGI (MDA-MB-231 breast) was > 45.6 µM and the GI50 (CCRF-CEM leukemia) was 3.03 µM. For the same molecule, the TGI (CCRF-CEM leukemia) was > 100 µM, the GI50 (MCF7 breast) was 0.512 µM and the TGI (MCF7 breast) was > 88.9 µM. For the same molecule, the GI50 (CAKI-1 renal) was 0.412 µM, the TGI (CAKI-1 renal) was 7.15 µM and the GI50 (UO-31 renal) was 0.439 µM. It also gave a TGI (UO-31 renal) of 17.4 µM, a GI50 (NCI/ADR-RES ovarian) of 0.603 µM and a TGI (NCI/ADR-RES ovarian) of 11.1 µM. For the same molecule, the GI50 (KM12 colon) was 1.16 µM and the TGI (KM12 colon) was > 27.3 µM.

`COc1cc(OC)cc(-c2ccc(-c3ccc(C(=N)N)o3)o2)c1` showed a GI50 (HCC-2998 colon) of 2.05 µM, a TGI (HCC-2998 colon) of 3.94 µM and a GI50 (A549 NSCLC) of 3.78 µM. For the same molecule, the TGI (A549 NSCLC) was 13.3 µM, the GI50 (BT-549 breast) was 6.91 µM and the TGI (BT-549 breast) was 20.1 µM. The GI50 (MDA-MB-231 breast) was 2.35 µM, the TGI (MDA-MB-231 breast) was 4.78 µM and the GI50 (CCRF-CEM leukemia) was 2.72 µM. It also gave a TGI (CCRF-CEM leukemia) of 7.72 µM, a GI50 (MCF7 breast) of 1.8 µM and a TGI (MCF7 breast) of 4.31 µM. The GI50 (CAKI-1 renal) was 4.33 µM, the TGI (CAKI-1 renal) was 16.1 µM and the GI50 (UO-31 renal) was 2.67 µM. It also gave a TGI (UO-31 renal) of 9.16 µM, a GI50 (NCI/ADR-RES ovarian) of 8.26 µM and a TGI (NCI/ADR-RES ovarian) of 22.4 µM. For the same molecule, the GI50 (KM12 colon) was 2.45 µM and the TGI (KM12 colon) was 6.56 µM.

With `COc1cnc2cc(C(=O)O)c3c([N+](=O)[O-])cccc3c2c1` the TGI (HCC-2998 colon) was > 100 µM, the TGI (A549 NSCLC) was > 100 µM and the TGI (BT-549 breast) was > 100 µM. The TGI (MDA-MB-231 breast) was > 100 µM, the TGI (CCRF-CEM leukemia) was > 100 µM and the TGI (MCF7 breast) was > 100 µM. For the same molecule, the TGI (CAKI-1 renal) was > 100 µM, the TGI (UO-31 renal) was > 100 µM and the TGI (NCI/ADR-RES ovarian) was > 100 µM. For the same molecule, the TGI (KM12 colon) was > 100 µM.

`CCOC(=O)CCc1cc(=O)oc2cc(O)cc(O)c12` was tested, and the TGI (HCC-2998 colon) was > 100 µM, the TGI (A549 NSCLC) was > 100 µM and the TGI (BT-549 breast) was > 100 µM. The TGI (MDA-MB-231 breast) was > 100 µM, the TGI (CCRF-CEM leukemia) was > 100 µM and the TGI (MCF7 breast) was > 100 µM. For the same molecule, the TGI (CAKI-1 renal) was > 100 µM, the TGI (UO-31 renal) was > 100 µM and the TGI (NCI/ADR-RES ovarian) was > 100 µM. The TGI (KM12 colon) was > 100 µM.

`O=C(Nc1ccc(N2CCNCC2)cc1)c1[nH]ncc1Nc1cc(Oc2ccccc2)ncn1` showed a GI50 (HCC-2998 colon) of 1.95 µM, a TGI (HCC-2998 colon) of 4.2 µM and a GI50 (A549 NSCLC) of 1.07 µM. It also gave a TGI (A549 NSCLC) of 2.95 µM, a GI50 (BT-549 breast) of 1.84 µM and a TGI (BT-549 breast) of 3.58 µM. For the same molecule, the GI50 (MDA-MB-231 breast) was 2.03 µM, the TGI (MDA-MB-231 breast) was 5.72 µM and the GI50 (CCRF-CEM leukemia) was 1.83 µM. The TGI (CCRF-CEM leukemia) was 4.73 µM, the GI50 (MCF7 breast) was 1.28 µM and the TGI (MCF7 breast) was 4.07 µM. It also gave a GI50 (CAKI-1 renal) of 1.21 µM, a TGI (CAKI-1 renal) of 3.39 µM and a GI50 (UO-31 renal) of 1.7 µM. It also gave a TGI (UO-31 renal) of 3.36 µM, a GI50 (NCI/ADR-RES ovarian) of 12 µM and a TGI (NCI/ADR-RES ovarian) of 39.2 µM. For the same molecule, the GI50 (KM12 colon) was 0.216 µM and the TGI (KM12 colon) was 0.521 µM.

For `Nc1ccn(C2O[C@H](CO)[C@@H](O)[C@@H]2O)c(=O)n1` (stereo not given in full), the GI50 (HCC-2998 colon) was 68.5 µM, the TGI (HCC-2998 colon) was > 100 µM and the GI50 (A549 NSCLC) was 24.6 µM. The TGI (A549 NSCLC) was > 100 µM, the TGI (BT-549 breast) was > 100 µM and the TGI (MDA-MB-231 breast) was > 100 µM. The GI50 (MCF7 breast) was 27.1 µM, the TGI (MCF7 breast) was > 100 µM and the TGI (CAKI-1 renal) was > 100 µM. The TGI (UO-31 renal) was > 100 µM, the TGI (NCI/ADR-RES ovarian) was > 100 µM and the TGI (KM12 colon) was > 100 µM.
